Columns and labels:
[1] = system: EW-3 (Ewing's Sarcoma); assay: Bliss excess, mean over the matrix (fraction); higher = more synergy
Method in brief: (§1)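 Cell lines grown in DMEM/F12 or RPMI with 10% FBS were plated in 1536-well plates and held 24 hours at 37°C, 5% CO2 before 72 hours of exposure to two-drug dose matrices, with DMSO typically at 0.2%. CellTiter-Glo 2.0 luminescence gave viability, which was converted to inhibition. Vehicle wells were set to 0 and blank wells to 1. Combination Emax is the second-highest inhibition in the matrix, and Bliss excess is the observed combination effect minus the expected EA + EB − EA·EB, where EA and EB are the single-agent effects.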

[2] = system: HuP-T3 (Pancreatic Carcinoma); assay: as above
Method in brief: as §1

[3] = system: NCI-H1573 (Lung Adenocarcinoma); assay: as above
Method in brief: as §1

[4] = system: NCI-N87 (Gastric Carcinoma); assay: as above
Method in brief: as §1

[5] = system: OCUB-M (Breast Carcinoma); assay: as above
Method in brief: as §1

[6] = system: U-87-MG (Glioblastoma); assay: as above
Method in brief: as §1

[7] = system: VMRC-LCD (Lung Adenocarcinoma); assay: as above
Method in brief: as §1

[8] = system: EBC-1 (Squamous Cell Lung Carcinoma); assay: combination Emax (second highest fraction inhibited in the dose matrix, 72 h); higher = more inhibition; extreme values may be limits of the assay
Method in brief: as §1

[9] = system: EMC-BAC-2 (Non-Small Cell Lung Carcinoma); assay: as above
Method in brief: as §1

[10] = system: EW-13 (Ewing's Sarcoma); assay: as above
Method in brief: as §1

[11] = system: GI-1 (Glioblastoma); assay: as above
Method in brief: as §1

[12] = system: IMR-5 (Neuroblastoma); assay: as above
Method in brief: as §1

[13] = system: KINGS-1 (Low Grade Glioma); assay: as above
Method in brief: as §1

[14] = system: KLE (Endometrial Carcinoma); assay: as above
Method in brief: as §1

[15] = system: KYSE-150 (Esophageal Squamous Cell Carcinoma); assay: as above
Method in brief: as §1

[16] = system: KYSE-50 (Esophageal Squamous Cell Carcinoma); assay: as above
Method in brief: as §1

[17] = system: NCI-H513 (Other Solid Carcinomas); assay: as above
Method in brief: as §1

[18] = system: OCUB-M (Breast Carcinoma); assay: as above
Method in brief: as §1

[19] = system: PFSK-1 (Other Solid Carcinomas); assay: as above
Method in brief: as §1

[20] = system: U-87-MG (Glioblastoma); assay: as above
Method in brief: as §1
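Wherever Bliss excess, mean over the matrix is given: after 72 h of two-drug dosing.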

| SMILES | Bliss excess [1] | Bliss excess [2] | Bliss excess [3] | Bliss excess [4] | Bliss excess [5] | Bliss excess [6] | Bliss excess [7] | combination Emax [8] | combination Emax [9] | combination Emax [10] | combination Emax [11] | combination Emax [12] | combination Emax [13] | combination Emax [14] | combination Emax [15] | combination Emax [16] | combination Emax [17] | combination Emax [18] | combination Emax [19] | combination Emax [20] |
| --- | --- | --- | --- | --- | --- | --- | --- | --- | --- | --- | --- | --- | --- | --- | --- | --- | --- | --- | --- | --- |
| Cc1c2c(nn1C)CSCc1cc(n(C)n1)CSc1cc(c3ccccc3c1)OCCCc1c(C(=O)O)n(C)c3c-2c(Cl)ccc13 [AZD5991] + C[C@@H]1COCCN1C2=NC(=NC(=C2)C3(CC3)[S@](=N)(=O)C)C4=C5C=CNC5=NC=C4 [AZD6738] (first compound max 1 µM, 7x7, partner max 10 µM) | 0.0207 | -0.0053 | -0.033 | -0.0285 | 0.0339 | -0.0241 | 0.0179 | 0.491 | 0.862 | 0.805 | 0.995 | 1 | 0.198 | 0.483 | 0.543 | 0.643 | 0.344 | 1 | 1 | 0.494 |
| Cc1c2c(nn1C)CSCc1cc(n(C)n1)CSc1cc(c3ccccc3c1)OCCCc1c(C(=O)O)n(C)c3c-2c(Cl)ccc13 [AZD5991] + C[C@@H](Nc1cc(F)cc(F)c1)c1cc(C(=O)N(C)C)cc2c(=O)cc(N3CCOCC3)oc12 [AZD8186] (first compound max 1 µM, 7x7, partner max 3 µM) | -0.0129 | -0.0622 | -0.0303 | -0.0181 | -0.0067 | -0.097 | -0.024 | 0.307 | 0.632 | 0.454 | 0.883 | 0.955 | 0.366 | 0.493 | 0.281 | 0.317 | 0.339 | 0.986 | 0.998 | 0.45 |
| Cc1c2c(nn1C)CSCc1cc(n(C)n1)CSc1cc(c3ccccc3c1)OCCCc1c(C(=O)O)n(C)c3c-2c(Cl)ccc13 [AZD5991] + Cc1cc2ncnn2cc1Nc1ncc2c(n1)n(C1CCOCC1)c(=O)n2C [AZD7648] (first compound max 1 µM, 7x7, partner max 10 µM) | -0.0626 | -0.0677 | 0.0523 | -0.0367 | -0.0448 | -0.0311 | -0.0302 | 0.291 | 0.678 | 0.403 | 0.672 | 1 | 0.326 | 0.342 | 0.57 | 0.284 | 0.324 | 0.983 | 1 | 0.326 |

From the supplement of paper PMC11061612
